Reference: US20060110401A1, “Mixture of peptides from c and ns3 proteins of the hepatitis c virus and applications thereof” (priority 2002, published 2006)
Read-outs that look alike come from different tables or passages of the source. Marks after values point to notes of the source that are not given here. Residues, ends and D or L forms follow the SMILES beside them.

What was measured:
[1] = tested on: DR4; test: DR4
[2] = biological target: HLA-DR11 (DRB1*1101) (Homo sapiens, UniProt P01903+P01911, A100R/A169T/A87E/I96F/K41T/L162R/M171V/P40S/Q125H/Q178H/Q39Y/Q99D/R42S/S66Y/T262R/V115G/W38E); test: biochemical; format: binding; settings: read-out: binds with good affinity to DR11
[3] = biological target: T1, HLA-DRB5 (DRB5*0101) (Homo sapiens, UniProt P01903+Q30154); test: biochemical; format: binding; settings: read-out: binds with good affinity to DRB5
T1 construct: endogenous in cells; host or cells: homozygous EBV-transformed human B lymphocyte lines; immunopurified with antibody L243

[4] = biological target: T2, HLA-DRB4 (DRB4*0101) (Homo sapiens, UniProt P01903+P13762, G164S); test: biochemical; format: binding; settings: read-out: binds with good affinity to DRB4
T2 construct: endogenous in cells; host or cells: homozygous EBV-transformed human B lymphocyte lines; immunopurified with antibody L243

[5] = tested on: DRB4; test: DRB4
Source text: (§1) Table printed on a drawing sheet, Figure 2
Where the first naming reader finds the target: head: DRB4

[6] = biological target: T3, HLA-DR1 (DRB1*0101) (Homo sapiens, UniProt P01903+P01911, A100R/D57E/F55L/F60I/F76Y/I96L/L162R/M171V/P40L/Q125E/R42F/V115G/Y59C); test: biochemical; format: binding; settings: for IC50: DRB1*0101
T3 construct: endogenous in cells; host or cells: homozygous EBV-transformed human B lymphocyte lines; immunopurified with antibody L243

[7] = tested on: DRB5; test: DRB5
[8] = biological target: HLA-DR7 (DRB1*0701) (Homo sapiens, UniProt P01903+P01911, A100R/A102G/A103Q/D57E/D86V/E43K/F76Y/K127E/L162R/M171V/P40G/Q125H/Q99D/R33Q/R42Y/R54Q/S133A/S66F/T210M/V115G/Y107V/Y59L/Y89S); test: biochemical; format: binding; settings: read-out: binds with good affinity to DR7
[9] = biological target: HLA-DR13 (DRB1*1301) (Homo sapiens, UniProt P01903+P01911, A100E/A169T/K41T/L162R/M171V/P40S/Q125H/Q178H/Q39Y/Q99D/R42S/S66N/T262R/W38E/Y61H); test: biochemical; format: binding
[10] = tested on: DRB3; test: DRB3
[11] = tested on: T lymphocytes derived from PBMCs from patients chronically infected with HCV; format: cell-based, human
[12] = tested on: DP402; test: DP402
[13] = tested on: DR3; test: DR3
Source text: as §1
Where the first naming reader finds the target: head: DR3

[14] = tested on: DR15; test: DR15
[15] = tested on: DR11; test: DR11
Source text: as §1
Where the first naming reader finds the target: head: DR11

[16] = biological target: T4, HLA-DR15 (DRB1*1501) (Homo sapiens, UniProt P01903+P01911); test: biochemical; format: binding; settings: DRB1*1501; read-out: binds with good affinity to DR15
T4 construct: endogenous in cells; host or cells: homozygous EBV-transformed human B lymphocyte lines; immunopurified with antibody L243

[17] = tested on: DP401; test: DP401
[18] = tested on: DR7; test: DR7
[19] = biological target: T5, HLA-DR4 (DRB1*0401) (Homo sapiens, UniProt P01903+P01911, A100K/A169T/F76Y/I96L/K127E/L162R/M171V/N62H/P40V/Q125Y/R42H/S133A/S149N/S66Y/V115G/V209L/W38E); test: biochemical; format: binding; settings: read-out: binds with good affinity to DR4
T5 construct: endogenous in cells; host or cells: homozygous EBV-transformed human B lymphocyte lines; immunopurified with antibody L243

[20] = tested on: DR1; test: DR1
[21] = read-out: binds with good affinity to DR1
[22] = patient 093, supernatant 48 h, —: not detected

Sequence of HLA-DR11 (DRB1*1101) (P01903 26-254 limits assumed, other chains not shown): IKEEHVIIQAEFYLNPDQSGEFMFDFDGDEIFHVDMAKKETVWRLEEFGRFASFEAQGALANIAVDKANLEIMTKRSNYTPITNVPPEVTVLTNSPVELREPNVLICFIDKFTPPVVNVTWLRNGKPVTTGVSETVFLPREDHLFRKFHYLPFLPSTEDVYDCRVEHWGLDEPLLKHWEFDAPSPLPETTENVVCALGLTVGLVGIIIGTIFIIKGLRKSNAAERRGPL

SMILES	IC50 [1]	IC50 [2]	IC50 [3]	IC50 [4]	IC50 [5]	IC50 [6, 21]	IC50 [7]	IC50 [8]	IC50 [10]	IC50 [12]	IC50 [13]	IC50 [14]	IC50 [15]	IC50 [16]	IC50 [17]	IC50 [18]	IC50 [19]	IC50 [20]	further results
CC[C@H](C)[C@H](NC(=O)[C@H](CC(C)C)NC(=O)[C@H](Cc1c[nH]cn1)NC(=O)[C@H](CCCNC(=N)N)NC(=O)CNC(=O)CNC(=O)[C@H](CCCCN)NC(=O)[C@@H](NC(=O)[C@@H](NC(=O)[C@H](CCC(=O)O)NC(=O)[C@H](CC(C)C)NC(=O)[C@@H]1CCCN1C(=O)[C@@H](NC(=O)[C@H](C)NC(=O)[C@H](CCCCN)NC(=O)CN)[C@@H](C)CC)C(C)C)[C@@H](C)CC)C(=O)N[C@@H](Cc1ccccc1)C(=O)N[C@@H](CS)C(=O)N[C@@H](Cc1c[nH]cn1)C(=O)N[C@@H](CO)C(=O)N[C@@H](CCCCN)C(=O)N[C@@H](CCCCN)C(=O)N[C@@H](CCCCN)C(=O)N[C@@H](C)C(=O)N[C@@H](CC(=O)O)C(=O)N[C@@H](CCC(=O)O)C(=O)N[C@@H](CC(C)C)C(=O)O [23N 1377-1403] (H-GKAIPLEVIKGGRHLIFCHSKKKADEL-OH; N-terminus and C-terminus assumed)	3000 nM	< 1000 nM	< 1000 nM	< 1000 nM	900 nM	< 1000 nM	3 nM	< 1000 nM	> 10000 nM										IC50 ([9]; read-out: binds with good affinity to DR13): < 1000 nM; IL2 ([11]; patient 067, supernatant 48 h, —: not detected): — 51 pg/ml; IL10 ([11]; patient 078, supernatant 48 h, —: not detected): 54 pg/mL; IFNγ [11, 22]: 57 pg/mL; IL4 [11, 22]: 23 pg/mL; IL10 ([11]; patient 659, supernatant 48 h, —: not detected): 29 pg/mL; IL10 ([11]; patient 815, assay at 24 h instead of 48 h): 63* — pg/ml; IL2 ([11]; patient 815, supernatant 48 h, —: not detected): 58 pg/mL
CC(C)C[C@H](NC(=O)[C@H](Cc1c[nH]c2ccccc12)NC(=O)CNC(=O)[C@H](C)NC(=O)[C@@H](N)Cc1c[nH]c2ccccc12)C(=O)N[C@@H](CC(C)C)C(=O)N[C@@H](CO)C(=O)N1CCC[C@H]1C(=O)N[C@@H](CCCNC(=N)N)C(=O)NCC(=O)N[C@@H](CO)C(=O)N[C@@H](CCCNC(=N)N)C(=O)N1CCC[C@H]1C(=O)N[C@@H](CO)C(=O)N[C@@H](Cc1c[nH]c2ccccc12)C(=O)O [3C 93-107] (H-WAGWLLSPRGSRPSW-OH; N-terminus and C-terminus assumed)	60000 nM				5000 nM		2570 nM		> 100000 nM	> 100000 nM	50000 nM	27500 nM	87 nM						IC50 ([6]; competition with biotinylated tracer HA 306-318, read-out: IC50, binding to HLA-DR1): 6330 nM; affinity for HLA-DR1 (in words) ([6]; legend of FIG. 4): low affinity
CC[C@H](C)[C@H](N)C(=O)N[C@@H](CCC(=O)O)C(=O)N[C@@H](CCC(=O)O)C(=O)N[C@H](C(=O)N[C@@H](C)C(=O)N[C@@H](CC(C)C)C(=O)N[C@@H](CO)C(=O)N[C@H](C(=O)N[C@H](C(=O)NCC(=O)N[C@@H](CCC(=O)O)C(=O)N[C@H](C(=O)N1CCC[C@H]1C(=O)N[C@@H](Cc1ccccc1)C(=O)N[C@@H](Cc1ccc(O)cc1)C(=O)NCC(=O)N[C@@H](CCCCN)C(=O)N[C@@H](C)C(=O)N[C@H](C(=O)N1CCC[C@H]1C(=O)N[C@@H](CC(C)C)C(=O)N[C@@H](CCC(=O)O)C(=O)N[C@H](C(=O)N[C@H](C(=O)N[C@@H](CCCCN)C(=O)NCC(=O)O)[C@@H](C)CC)C(C)C)[C@@H](C)CC)[C@@H](C)CC)[C@@H](C)O)[C@@H](C)O)C(C)C [22N 1362-1387] (H-IEEVALSTTGEIPFYGKAIPLEVIKG-OH; N-terminus and C-terminus assumed)	1620 nM		< 1000 nM		4000 nM	< 1000 nM	200 nM	< 1000 nM	32500 nM	10300 nM	21200 nM	425 nM	3000 nM	< 1000 nM	8000 nM	20 nM			
CC[C@H](C)[C@H](NC(=O)[C@H](CCC(N)=O)NC(=O)[C@@H](NC(=O)[C@H](CCC(=O)O)NC(=O)CNC(=O)[C@H](CCC(=O)O)NC(=O)[C@@H](NC(=O)[C@H](CCC(N)=O)NC(=O)[C@H](CC(N)=O)NC(=O)[C@@H](N)CCCCN)C(C)C)C(C)C)C(=O)N[C@H](C(=O)N[C@@H](CO)C(=O)N[C@H](C(=O)N[C@@H](C)C(=O)N[C@@H](C)C(=O)N[C@@H](CCC(N)=O)C(=O)N[C@H](C(=O)N[C@@H](Cc1ccccc1)C(=O)N[C@@H](CC(C)C)C(=O)N[C@@H](C)C(=O)N[C@H](C(=O)O)[C@@H](C)O)[C@@H](C)O)[C@@H](C)O)C(C)C [10N 1052-1072]	24 nM	< 1000 nM	< 1000 nM	< 1000 nM	400 nM	< 1000 nM	19 nM	< 1000 nM	10000 nM	1180 nM	2250 nM	300 nM	200 nM	< 1000 nM	2030 nM	7 nM	< 1000 nM	400 nM	
CC[C@H](C)[C@H](NC(=O)[C@H](Cc1c[nH]cn1)NC(=O)[C@H](CCCNC(=N)N)NC(=O)[C@@H](NC(=O)[C@@H](NC(=O)[C@H](CC(C)C)NC(=O)[C@H](CCCNC(=N)N)NC(=O)[C@@H](NC(=O)[C@H](CCCNC(=N)N)NC(=O)[C@H](CCC(=O)O)NC(=O)[C@@H](N)[C@@H](C)O)C(C)C)C(C)C)[C@@H](C)O)C(=O)N[C@@H](Cc1ccc(O)cc1)C(=O)N[C@@H](CC(N)=O)C(=O)N[C@@H](CCCNC(=N)N)C(=O)N[C@@H](CCC(=O)O)C(=O)N[C@@H](CCC(=O)O)C(=O)O [B1 21-36, reference compound] (H-TERVRLVTRHIYNREE-OH; N-terminus and C-terminus assumed)																			IC50 ([9]; tracer B1 21-36, read-out: IC50, binding to HLA-DR13): 330 nM
CC(C)C[C@H](NC(=O)[C@H](Cc1c[nH]cn1)NC(=O)[C@H](C)NC(=O)[C@@H](NC(=O)[C@H](CCC(N)=O)NC(=O)[C@H](Cc1ccccc1)NC(=O)[C@H](CO)NC(=O)[C@H](CCC(N)=O)NC(=O)[C@@H]1CCCN1C(=O)[C@@H](NC(=O)[C@@H](NC(=O)[C@@H]1CCCN1C(=O)[C@@H]1CCCN1C(=O)[C@H](CO)NC(=O)[C@H](CO)NC(=O)[C@H](CC(N)=O)NC(=O)[C@H](CC(=O)O)NC(=O)[C@@H](NC(=O)[C@H](Cc1ccccc1)NC(=O)[C@@H](NC(=O)[C@@H]1CCCN1C(=O)[C@H](CO)NC(=O)[C@@H](N)CCCNC(=N)N)C(C)C)[C@@H](C)O)C(C)C)C(C)C)C(C)C)C(=O)N[C@@H](Cc1c[nH]cn1)C(=O)N[C@@H](C)C(=O)N1CCC[C@H]1C(=O)N[C@H](C(=O)NCC(=O)N[C@@H](CO)C(=O)NCC(=O)N[C@@H](CCCCN)C(=O)N[C@@H](CO)C(=O)N[C@H](C(=O)N[C@@H](CCCCN)C(=O)O)[C@@H](C)O)[C@@H](C)O [17N 1206-1239]	425 nM	< 1000 nM	< 1000 nM		3880 nM	< 1000 nM		< 1000 nM	5250 nM	14600 nM		10000 nM	550 nM		64800 nM		< 1000 nM	55 nM	
